PubChem BioAssay (NCI)
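Briefly, cells in 96-well plates were exposed to five compound concentrations for 48 h, and endpoints were estimated by linear interpolation. Here, GI50 denotes the concentration required for 50% inhibition of growth. At the TGI there is no net growth.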 Activity calls are given as the source filed them. No stated cut-off is given here; in the data, active means GI50 below about 0.43 µM; inactive means the rest.

Columns and labels:
Test in all cases: inhibition of tumour cell growth, NCI panel, 48 h
OVCAR-8 ovarian = test system: OVCAR-8 ovarian
SNB-19 CNS = test system: SNB-19 CNS
UO-31 renal = test system: UO-31 renal
CCRF-CEM leukemia = test system: CCRF-CEM leukemia
HCT-116 colon = test system: HCT-116 colon
SR leukemia = test system: SR leukemia
PC-3 prostate = test system: PC-3 prostate
MDA-MB-435 = test system: MDA-MB-435

`Cc1ccc(C#CS(=O)(=O)C(F)(F)F)cc1` gave a TGI (OVCAR-8 ovarian) greater than 100 µM, a TGI (SNB-19 CNS) greater than 100 µM and a TGI (UO-31 renal) greater than 100 µM. For the same compound, the TGI (CCRF-CEM leukemia) was greater than 100 µM and the TGI (HCT-116 colon) was greater than 100 µM.

Compound `COc1cc(-c2nc3cc(Cl)c(Cl)cc3[nH]2)ccc1OCC(=O)N=Nc1c(O)[nH]c2ccc(Cl)cc12` has a GI50 (SR leukemia) of 0.252 µM, a TGI (SR leukemia) of 1.39 µM and a GI50 (SNB-19 CNS) of 0.447 µM. For the same compound, the TGI (SNB-19 CNS) was 3.33 µM, the GI50 (UO-31 renal) was greater than 100 µM and the TGI (UO-31 renal) was greater than 100 µM. For the same compound, the GI50 (CCRF-CEM leukemia) was 0.28 µM, the TGI (CCRF-CEM leukemia) was 5.27 µM and the GI50 (HCT-116 colon) was 0.284 µM. It also gave a TGI (HCT-116 colon) of 1.2 µM.

In the case of `N#Cc1ccc(C2Oc3ccc(Cl)cc3C=C2[N+](=O)[O-])cc1` (configuration not stated), the TGI (SR leukemia) is reported as 1.61 µM, the TGI (SNB-19 CNS) is reported as 6.58 µM and the TGI (PC-3 prostate) is reported as 3.37 µM. The TGI (MDA-MB-435) was 3.56 µM, the TGI (UO-31 renal) was 2.99 µM and the TGI (CCRF-CEM leukemia) was 1.03 µM. The TGI (HCT-116 colon) was 0.987 µM.

`O=Cc1c(Br)[nH]c2ccccc12` gave a TGI (OVCAR-8 ovarian) greater than 100 µM, a TGI (UO-31 renal) greater than 100 µM and a TGI (CCRF-CEM leukemia) greater than 100 µM. The TGI (HCT-116 colon) was greater than 100 µM.

With `Cc1cc2oc3c(ccc(=O)n3C)c(=O)c2c(C)c1Cl` the TGI (SR leukemia) was greater than 100 µM, the TGI (OVCAR-8 ovarian) was greater than 100 µM and the TGI (SNB-19 CNS) was greater than 100 µM. The TGI (PC-3 prostate) was greater than 100 µM, the TGI (MDA-MB-435) was greater than 100 µM and the TGI (UO-31 renal) was greater than 100 µM. For the same compound, the TGI (CCRF-CEM leukemia) was greater than 100 µM and the TGI (HCT-116 colon) was greater than 100 µM.

`O=NN1C(c2ccccc2)CCCC1c1ccccc1` (configuration not stated) was tested, and the TGI (OVCAR-8 ovarian) was greater than 100 µM, the TGI (SNB-19 CNS) was greater than 100 µM and the TGI (UO-31 renal) was greater than 100 µM. It also gave a TGI (CCRF-CEM leukemia) greater than 100 µM and a TGI (HCT-116 colon) greater than 100 µM.

`CCCCOc1ccc2c(c1)CC[C@@H]1[C@@H]2CC[C@]2(C)C(=O)N(CCCC)C(=O)C[C@@H]12` was tested, and the TGI (SR leukemia) was greater than 100 µM, the TGI (OVCAR-8 ovarian) was greater than 100 µM and the TGI (SNB-19 CNS) was greater than 100 µM. It also gave a TGI (PC-3 prostate) greater than 100 µM, a TGI (MDA-MB-435) greater than 100 µM and a TGI (UO-31 renal) greater than 100 µM. It also gave a TGI (CCRF-CEM leukemia) greater than 100 µM and a TGI (HCT-116 colon) greater than 100 µM.

`CCOC(=O)C1=C(c2ccccc2)C12N(Cc1ccccc1)C(=O)C2(c1ccccc1)c1ccccc1` (configuration not stated) was tested, and the TGI (SR leukemia) was greater than 100 µM, the TGI (SNB-19 CNS) was greater than 100 µM and the TGI (PC-3 prostate) was 75.5 µM. For the same compound, the TGI (MDA-MB-435) was greater than 100 µM, the TGI (UO-31 renal) was greater than 100 µM and the TGI (CCRF-CEM leukemia) was greater than 100 µM. The TGI (HCT-116 colon) was greater than 100 µM.

In the case of `O=C1c2cc3c(cc2CC1Cc1ccc2c(c1)CCC2)CCC3` (configuration not stated), the TGI (SR leukemia) is reported as 95.1 µM, the TGI (OVCAR-8 ovarian) is reported as greater than 100 µM and the TGI (SNB-19 CNS) is reported as greater than 100 µM. It also gave a TGI (PC-3 prostate) greater than 100 µM, a TGI (MDA-MB-435) greater than 100 µM and a TGI (UO-31 renal) greater than 100 µM. The TGI (CCRF-CEM leukemia) was greater than 100 µM and the TGI (HCT-116 colon) was greater than 100 µM.

`O=C(c1ccccc1O)c1cc(-c2ncc3c(=O)c4ccccc4oc3n2)c(-c2ccccc2O)[nH]c1=O` gave a TGI (OVCAR-8 ovarian) greater than 90.2 µM, a TGI (SNB-19 CNS) greater than 87.5 µM and a TGI (UO-31 renal) greater than 79.7 µM. The TGI (CCRF-CEM leukemia) was 69.3 µM and the TGI (HCT-116 colon) was 47.4 µM.

`O=P(O)(O)CN1CCNCCN(CP(=O)(O)O)CCN(CP(=O)(O)O)CCNCC1` was tested, and the outcome (SNB-19 CNS) was “inactive”, the outcome (PC-3 prostate) was “inactive” and the outcome (MDA-MB-435) was “inactive”. For the same compound, the outcome (UO-31 renal) was “inactive” and the outcome (CCRF-CEM leukemia) was “inactive”.
